For experiment [1], the target named is T1, 5-hydroxytryptamine receptor 2A (Homo sapiens, UniProt P28223). Nature of the experiment: Displacement of [3H]Ketanserin from human recombinant 5-HT2A receptor expressed in HEK293T cells after 1 to […] by scintillation counting analysis. In kind it is cell-based, HEK-293T. A general note: In a radioligand displacement assay an active substance lowers the binding of a labelled ligand.

Experiment [2] deals with T1, 5-hydroxytryptamine receptor 2A. The experiment is described as follows: Agonist activity at human 5-HT2A receptor expressed in HEK293 cells assessed as increase in calcium mobilization by FLIPR assay. In kind it is functional, cell-based.
In experiment [3] the target is D(2) dopamine receptor (Homo sapiens, UniProt P14416). Nature of the experiment: Displacement of [3H]N-methylspiperone from human recombinant dopamine D2 receptor expressed in HEK293 cells after 1 to […] by scintillation counting analysis. The class given is cell-based.
The target in experiment [4] is T2, Sodium-dependent noradrenaline transporter (Homo sapiens, UniProt P23975). Nature of the experiment: Inhibition of [3H]norepinephrine uptake at human NET expressed in HEK293 cells preincubated for 10 mins prior to substrate addition measured after 4 mins by […]. In kind it is cell-based.
A short description of experiment [5]: Displacement of [3H]DTG from sigma 2 receptor in rat PC12 cells after 1 to […] by scintillation counting analysis. The class given is cell-based. To be noted: pc-12.
Experiment [6] addresses Alpha-1B adrenergic receptor (Homo sapiens, UniProt P35368). The experiment is described as follows: Displacement of [3H]Prazosin from human recombinant adrenergic alpha1B receptor expressed in HEK293 cells after 1 to […] by scintillation counting analysis. The class given is cell-based.
In experiment [7] the target is Alpha-1A adrenergic receptor (Homo sapiens, UniProt P35348). Nature of the experiment: Displacement of [3H]Prazosin from human recombinant adrenergic alpha1A receptor expressed in HEK293 cells after 1 to […] by scintillation counting analysis. In kind it is cell-based.
For experiment [8], the target named is Alpha-2B adrenergic receptor (Homo sapiens, UniProt P18089). Nature of the experiment: Displacement of [3H]Clonidine from human recombinant adrenergic alpha2B receptor expressed in HEK293T cells after 1 to […] by scintillation counting analysis. The class given is cell-based, HEK-293T.
Experiment [9] deals with Alpha-2C adrenergic receptor (Homo sapiens, UniProt P18825). The experiment is described as follows: Displacement of [3H]Clonidine from human recombinant adrenergic alpha2C receptor expressed in MDCK cells after 1 to […] by scintillation counting analysis. In kind it is cell-based.
For experiment [10], the target named is 5-hydroxytryptamine receptor 1B (Homo sapiens, UniProt P28222). The experiment is described as follows: Displacement of [3H][…] from human recombinant 5-HT1B receptor expressed in HEK293 cells after 1 to […] by scintillation counting analysis. The class given is cell-based.
In experiment [11] the target is D(3) dopamine receptor (Homo sapiens, UniProt P35462). The experiment is described as follows: Displacement of [3H]N-methylspiperone from human recombinant dopamine D3 receptor expressed in HEK293 cells after 1 to […] by scintillation counting analysis. The class given is cell-based.
The target of experiment [12] is T2, Sodium-dependent noradrenaline transporter. Nature of the experiment: Displacement of [3H]Nisoxetine from human recombinant norepinephrine transporter expressed in HEK293 cells after 1 to […] by scintillation counting analysis. The class given is cell-based.

This note sets out measurements from ChEMBL document CHEMBL2390840, “An analysis of the synthetic tryptamines AMT and 5-MeO-DALT: emerging 'Novel Psychoactive Drugs'” (Bioorg Med Chem Lett, 2013).

Some results are limits rather than exact numbers.

T2 sequence (P23975 whole entry): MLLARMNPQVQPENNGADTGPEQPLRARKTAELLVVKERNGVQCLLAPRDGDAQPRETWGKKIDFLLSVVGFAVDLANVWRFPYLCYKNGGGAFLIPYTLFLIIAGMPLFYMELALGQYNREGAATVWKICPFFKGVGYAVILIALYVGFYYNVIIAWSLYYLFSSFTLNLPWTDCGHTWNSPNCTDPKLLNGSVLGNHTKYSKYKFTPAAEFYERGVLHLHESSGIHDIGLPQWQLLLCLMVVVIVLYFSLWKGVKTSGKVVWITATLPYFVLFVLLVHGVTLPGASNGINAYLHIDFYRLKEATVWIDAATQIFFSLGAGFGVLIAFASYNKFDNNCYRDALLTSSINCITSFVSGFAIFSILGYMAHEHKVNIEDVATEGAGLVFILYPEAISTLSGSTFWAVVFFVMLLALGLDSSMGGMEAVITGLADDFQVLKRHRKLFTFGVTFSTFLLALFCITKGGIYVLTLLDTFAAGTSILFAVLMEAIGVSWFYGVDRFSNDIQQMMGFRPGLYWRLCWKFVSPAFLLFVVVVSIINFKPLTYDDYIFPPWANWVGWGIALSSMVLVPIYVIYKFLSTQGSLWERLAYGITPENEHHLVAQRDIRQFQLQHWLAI
T1 sequence (P28223 whole entry): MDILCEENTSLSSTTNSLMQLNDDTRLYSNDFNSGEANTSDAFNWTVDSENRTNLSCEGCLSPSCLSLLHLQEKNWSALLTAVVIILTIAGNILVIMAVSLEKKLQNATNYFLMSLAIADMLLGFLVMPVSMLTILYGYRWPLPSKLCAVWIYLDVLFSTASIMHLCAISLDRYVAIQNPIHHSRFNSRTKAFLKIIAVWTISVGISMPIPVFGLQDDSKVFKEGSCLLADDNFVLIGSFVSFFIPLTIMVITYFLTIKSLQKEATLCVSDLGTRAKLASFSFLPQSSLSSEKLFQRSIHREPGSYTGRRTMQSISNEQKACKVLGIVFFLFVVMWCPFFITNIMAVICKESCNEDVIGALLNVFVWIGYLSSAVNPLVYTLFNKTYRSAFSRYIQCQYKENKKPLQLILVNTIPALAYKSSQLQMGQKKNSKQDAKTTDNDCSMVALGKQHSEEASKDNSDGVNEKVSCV
D(2) dopamine receptor, sequence (P14416 whole entry): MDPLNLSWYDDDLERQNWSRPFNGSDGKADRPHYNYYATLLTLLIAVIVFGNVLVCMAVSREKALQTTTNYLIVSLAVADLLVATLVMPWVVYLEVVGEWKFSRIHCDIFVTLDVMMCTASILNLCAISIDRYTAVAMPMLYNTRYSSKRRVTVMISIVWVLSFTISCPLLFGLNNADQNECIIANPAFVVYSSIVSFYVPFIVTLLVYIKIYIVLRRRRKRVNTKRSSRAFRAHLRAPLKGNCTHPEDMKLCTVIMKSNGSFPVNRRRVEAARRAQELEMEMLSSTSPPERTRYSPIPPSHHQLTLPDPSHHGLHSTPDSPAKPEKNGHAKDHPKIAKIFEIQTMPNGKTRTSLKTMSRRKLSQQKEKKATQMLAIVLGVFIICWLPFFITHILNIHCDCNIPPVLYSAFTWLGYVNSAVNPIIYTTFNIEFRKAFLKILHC
Alpha-1B adrenergic receptor, sequence (P35368 whole entry): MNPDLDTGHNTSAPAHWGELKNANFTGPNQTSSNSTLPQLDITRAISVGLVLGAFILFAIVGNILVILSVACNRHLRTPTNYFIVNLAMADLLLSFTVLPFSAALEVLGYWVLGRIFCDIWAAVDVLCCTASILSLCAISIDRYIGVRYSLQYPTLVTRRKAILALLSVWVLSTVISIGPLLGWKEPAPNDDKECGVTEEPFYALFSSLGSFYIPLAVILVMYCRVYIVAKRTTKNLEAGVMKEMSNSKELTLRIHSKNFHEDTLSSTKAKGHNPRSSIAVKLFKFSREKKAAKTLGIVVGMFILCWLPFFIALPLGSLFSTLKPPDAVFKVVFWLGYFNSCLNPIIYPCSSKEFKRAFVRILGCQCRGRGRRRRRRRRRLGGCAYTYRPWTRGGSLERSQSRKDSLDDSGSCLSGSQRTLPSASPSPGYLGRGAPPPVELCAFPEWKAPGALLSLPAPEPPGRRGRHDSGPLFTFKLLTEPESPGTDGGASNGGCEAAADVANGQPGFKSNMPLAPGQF
Alpha-2B adrenergic receptor, sequence (P18089 whole entry): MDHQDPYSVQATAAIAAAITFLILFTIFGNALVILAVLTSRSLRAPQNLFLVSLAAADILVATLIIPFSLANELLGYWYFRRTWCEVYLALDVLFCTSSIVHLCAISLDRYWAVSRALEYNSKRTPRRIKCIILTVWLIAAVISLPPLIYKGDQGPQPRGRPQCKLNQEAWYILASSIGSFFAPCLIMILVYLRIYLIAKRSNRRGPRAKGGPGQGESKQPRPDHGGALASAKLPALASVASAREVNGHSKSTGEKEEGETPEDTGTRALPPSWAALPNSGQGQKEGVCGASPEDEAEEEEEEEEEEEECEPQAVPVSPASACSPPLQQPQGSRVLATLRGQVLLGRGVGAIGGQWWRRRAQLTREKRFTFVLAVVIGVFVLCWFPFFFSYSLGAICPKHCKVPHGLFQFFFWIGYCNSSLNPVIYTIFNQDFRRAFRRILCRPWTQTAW
D(3) dopamine receptor, sequence (P35462 whole entry): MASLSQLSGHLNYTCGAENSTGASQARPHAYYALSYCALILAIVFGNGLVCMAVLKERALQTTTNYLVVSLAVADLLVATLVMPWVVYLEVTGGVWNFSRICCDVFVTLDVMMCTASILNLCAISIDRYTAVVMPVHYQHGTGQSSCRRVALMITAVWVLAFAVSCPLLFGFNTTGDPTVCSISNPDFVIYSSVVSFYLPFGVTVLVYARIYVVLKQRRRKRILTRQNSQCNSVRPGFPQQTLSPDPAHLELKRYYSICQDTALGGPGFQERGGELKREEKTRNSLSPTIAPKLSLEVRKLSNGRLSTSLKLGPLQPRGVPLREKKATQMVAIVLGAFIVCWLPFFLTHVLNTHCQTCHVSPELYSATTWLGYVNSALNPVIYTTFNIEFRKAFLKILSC
Alpha-1A adrenergic receptor, sequence (P35348 whole entry): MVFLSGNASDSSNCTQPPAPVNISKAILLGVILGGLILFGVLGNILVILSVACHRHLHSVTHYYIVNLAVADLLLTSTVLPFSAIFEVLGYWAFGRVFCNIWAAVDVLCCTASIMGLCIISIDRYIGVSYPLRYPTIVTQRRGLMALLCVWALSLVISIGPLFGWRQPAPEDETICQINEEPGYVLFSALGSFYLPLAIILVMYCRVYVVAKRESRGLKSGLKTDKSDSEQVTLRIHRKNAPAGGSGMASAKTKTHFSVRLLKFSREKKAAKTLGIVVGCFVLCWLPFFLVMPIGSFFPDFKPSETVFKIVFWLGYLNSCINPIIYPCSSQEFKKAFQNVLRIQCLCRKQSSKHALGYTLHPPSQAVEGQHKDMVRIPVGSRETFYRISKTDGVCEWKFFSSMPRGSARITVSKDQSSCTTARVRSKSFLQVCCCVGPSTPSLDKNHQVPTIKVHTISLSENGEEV
Alpha-2C adrenergic receptor, sequence (P18825 whole entry): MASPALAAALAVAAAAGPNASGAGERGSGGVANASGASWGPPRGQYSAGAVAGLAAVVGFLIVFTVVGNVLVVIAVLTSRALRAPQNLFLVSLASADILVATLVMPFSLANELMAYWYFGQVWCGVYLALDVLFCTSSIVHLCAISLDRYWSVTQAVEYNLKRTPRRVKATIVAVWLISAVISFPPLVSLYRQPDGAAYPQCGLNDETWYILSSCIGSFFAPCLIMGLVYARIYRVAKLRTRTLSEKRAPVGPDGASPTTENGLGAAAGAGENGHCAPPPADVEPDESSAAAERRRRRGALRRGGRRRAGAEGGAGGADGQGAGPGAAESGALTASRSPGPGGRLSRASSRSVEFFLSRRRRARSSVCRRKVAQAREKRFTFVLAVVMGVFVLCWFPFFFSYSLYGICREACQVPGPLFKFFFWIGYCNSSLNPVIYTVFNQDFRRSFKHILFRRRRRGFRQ
5-hydroxytryptamine receptor 1B, sequence (P28222 whole entry): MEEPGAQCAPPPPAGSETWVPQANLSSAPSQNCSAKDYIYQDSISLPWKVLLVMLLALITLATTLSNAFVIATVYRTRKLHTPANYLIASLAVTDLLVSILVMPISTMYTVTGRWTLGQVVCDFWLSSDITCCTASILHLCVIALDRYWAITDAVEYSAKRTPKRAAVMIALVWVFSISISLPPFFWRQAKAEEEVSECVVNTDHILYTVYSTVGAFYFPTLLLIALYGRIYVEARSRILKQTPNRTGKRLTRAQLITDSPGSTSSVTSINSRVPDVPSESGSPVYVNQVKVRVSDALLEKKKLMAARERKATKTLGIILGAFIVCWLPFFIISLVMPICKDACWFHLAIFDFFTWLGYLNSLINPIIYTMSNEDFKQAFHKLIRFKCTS

Consider `C=CCN(CC=C)CCc1c[nH]c2ccc(OC)cc12`, for which the Ki (as a rule, a dissociation constant, usually derived from enzyme kinetics or from competition with a known ligand) in experiment [1] came to 555 nM. The EC50 was 2.8 nM in experiment [2] (read-out: EC50) and 27.5 nM in experiment [2] (read-out: pEC50 (converted)).

Turning to `CC(N)Cc1c[nH]c2ccccc12` (centres undefined), the Ki in experiment [3] is > 10000 nM; in experiment [4] it was 642 nM; in experiment [6], > 10000 nM; in [7], > 10000 nM; in experiment [8], > 10000 nM; in [9], > 10000 nM. Further, the Ki is 559 nM in experiment [10], > 10000 nM in [11] and > 10000 nM in experiment [12]. Further, the 50% inhibitory concentration (IC50) (commonly the concentration needed to halve the response being measured) in [4] is 3720 nM. For the same compound, in experiment [5], the pKi (in general, −log10 of the Ki, conventionally taken in molar units) is on record as < 5.
